BindingDB's records for doi:10.1021/jm00091a008 (Alter, 1992)

Target: Voltage-dependent L-type calcium channel subunit alpha-1C (Oryctolagus cuniculus, UniProt P15381)
Assay: ChEBML_164619
Description: Blockade of calcium-evoked contractions in depolarized aortic strips

Voltage-dependent L-type calcium channel subunit alpha-1C, sequence (P15381 whole entry): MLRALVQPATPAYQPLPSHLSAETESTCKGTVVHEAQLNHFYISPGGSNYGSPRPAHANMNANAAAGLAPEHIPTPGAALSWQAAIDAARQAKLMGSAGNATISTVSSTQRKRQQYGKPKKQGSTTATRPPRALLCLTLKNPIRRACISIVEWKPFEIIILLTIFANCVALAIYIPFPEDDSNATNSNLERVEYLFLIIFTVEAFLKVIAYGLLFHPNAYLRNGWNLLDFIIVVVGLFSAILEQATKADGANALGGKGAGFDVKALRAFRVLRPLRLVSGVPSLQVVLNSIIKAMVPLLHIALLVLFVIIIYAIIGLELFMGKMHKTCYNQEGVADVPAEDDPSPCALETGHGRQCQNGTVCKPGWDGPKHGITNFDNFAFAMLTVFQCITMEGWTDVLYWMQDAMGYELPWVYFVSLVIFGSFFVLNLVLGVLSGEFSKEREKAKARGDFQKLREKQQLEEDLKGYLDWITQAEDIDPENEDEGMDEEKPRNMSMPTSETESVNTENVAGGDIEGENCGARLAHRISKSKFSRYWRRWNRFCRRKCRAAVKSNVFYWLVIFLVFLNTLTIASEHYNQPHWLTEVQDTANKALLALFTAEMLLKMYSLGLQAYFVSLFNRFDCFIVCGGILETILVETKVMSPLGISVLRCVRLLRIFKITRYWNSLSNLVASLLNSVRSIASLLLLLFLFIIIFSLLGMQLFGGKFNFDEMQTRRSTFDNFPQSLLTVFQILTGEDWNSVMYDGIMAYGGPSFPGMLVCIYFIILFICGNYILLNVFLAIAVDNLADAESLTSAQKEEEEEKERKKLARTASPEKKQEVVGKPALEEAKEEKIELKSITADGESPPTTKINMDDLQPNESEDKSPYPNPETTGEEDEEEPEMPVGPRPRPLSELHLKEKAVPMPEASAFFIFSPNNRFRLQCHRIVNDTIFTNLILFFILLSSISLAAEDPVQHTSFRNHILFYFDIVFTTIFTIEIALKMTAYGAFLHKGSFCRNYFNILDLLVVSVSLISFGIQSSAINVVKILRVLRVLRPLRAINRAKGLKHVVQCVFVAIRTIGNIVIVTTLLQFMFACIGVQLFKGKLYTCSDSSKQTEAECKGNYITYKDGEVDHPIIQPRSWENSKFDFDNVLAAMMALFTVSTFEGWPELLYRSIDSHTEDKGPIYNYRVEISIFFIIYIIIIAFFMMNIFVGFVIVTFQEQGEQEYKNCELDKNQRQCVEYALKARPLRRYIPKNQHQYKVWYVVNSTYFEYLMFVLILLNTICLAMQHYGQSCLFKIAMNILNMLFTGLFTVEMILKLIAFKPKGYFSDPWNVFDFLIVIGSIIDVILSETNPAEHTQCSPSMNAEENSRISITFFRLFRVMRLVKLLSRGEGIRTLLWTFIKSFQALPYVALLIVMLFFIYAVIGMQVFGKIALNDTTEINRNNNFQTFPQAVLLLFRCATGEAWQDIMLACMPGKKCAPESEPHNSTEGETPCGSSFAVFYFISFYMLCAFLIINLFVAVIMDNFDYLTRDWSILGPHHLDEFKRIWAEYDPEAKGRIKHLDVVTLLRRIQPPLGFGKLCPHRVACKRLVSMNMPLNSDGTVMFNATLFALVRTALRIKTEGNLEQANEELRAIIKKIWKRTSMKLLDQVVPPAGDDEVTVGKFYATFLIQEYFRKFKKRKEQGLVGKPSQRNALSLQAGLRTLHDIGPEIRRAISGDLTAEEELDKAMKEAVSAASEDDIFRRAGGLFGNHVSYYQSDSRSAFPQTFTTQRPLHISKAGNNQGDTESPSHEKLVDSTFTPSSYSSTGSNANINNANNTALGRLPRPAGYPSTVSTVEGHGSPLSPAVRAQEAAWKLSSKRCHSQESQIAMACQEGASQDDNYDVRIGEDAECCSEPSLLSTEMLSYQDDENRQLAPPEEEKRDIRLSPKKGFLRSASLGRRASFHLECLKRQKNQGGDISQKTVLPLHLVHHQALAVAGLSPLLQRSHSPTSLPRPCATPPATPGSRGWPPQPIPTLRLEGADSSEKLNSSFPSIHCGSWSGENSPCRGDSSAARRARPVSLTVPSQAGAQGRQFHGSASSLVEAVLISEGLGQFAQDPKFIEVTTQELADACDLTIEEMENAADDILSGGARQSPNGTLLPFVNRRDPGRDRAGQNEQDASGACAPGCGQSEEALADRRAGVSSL

IC50 [nM]	SMILES
25	CC1=NC(C)=C(C(=O)OCC2CCCO2)C(c2cccc([N+](=O)[O-])c2)C1=C(O)OCN1C(=O)c2ccccc2S1(=O)=O (centres undefined)
25	CC1=NC(C)=C(C(=O)OCC2CCCCO2)C(c2ccccc2[N+](=O)[O-])C1=C(O)OCN1C(=O)c2ccccc2S1(=O)=O (centres undefined)
5.1	COC(=O)C1C(C)=NC(C)=C(C(=O)OCN2C(=O)c3ccccc3S2(=O)=O)C1c1cccc(Cl)c1Cl (centres undefined)
2.9	COCCOC(=O)C1C(C)=NC(C)=C(C(=O)OCN2C(=O)c3ccccc3S2(=O)=O)C1c1cccc(Cl)c1Cl (centres undefined)
